For the test, the system named is MV-4-11 cells. The test can be described thus: Gene expression microarray analysis (Affymetrix PrimeView) and GSEA. It counts as cell-based, human. Further details: RFU PODN (11730768_x_at) / Fold change /veh PODN (11730768_x_at) / RFU LINC00158 (11744669_a_at) / Fold change /veh LINC00158 (11744669_a_at) / RFU DUSP10 (11751237_a_at) / Fold change /veh DUSP10 (11751237_a_at) / RFU ID3 (11757404_x_at) / Fold change /veh ID3 (11757404_x_at) / RFU PLEKHG5 (11737974_s_at) / Fold change /veh PLEKHG5 (11737974_s_at) / RFU LRRC4B (11730491_at) / Fold change /veh LRRC4B (11730491_at) / RFU GIMAP4 (11747438_a_at) / Fold change /veh GIMAP4 (11747438_a_at) / RFU KRT8 (11758183_x_at) / Fold change /veh KRT8 (11758183_x_at) / RFU CNN1 (11734310_a_at) / Fold change /veh CNN1 (11734310_a_at) / RFU VPS37D (11726825_at) / Fold change /veh VPS37D (11726825_at) / RFU C10orf10 (11716522_x_at) / Fold change /veh C10orf10 (11716522_x_at) / RFU KIR2DL2 /// KIR2DL4 /// KIR2DL5A /// KIR2DL5B /// KIR2DS1 /// KIR2DS2 /// KIR2DS3 /// KIR2DS4 /// KIR3DL3 /// KIR3DL3 /// KIR3DS1 (11738374_at) / Fold change /veh KIR2DL2 /// KIR2DL4 /// KIR2DL5A /// KIR2DL5B /// KIR2DS1 /// KIR2DS2 /// KIR2DS3 /// KIR2DS4 /// KIR3DL3 /// KIR3DL3 /// KIR3DS1 (11738374_at) / RFU C1QL1 (11718748_at) / Fold change /veh C1QL1 (11718748_at) / RFU TMPRSS4 (11747572_a_at) / Fold change /veh TMPRSS4 (11747572_a_at) / RFU HAMP (11756126_x_at) / Fold change /veh HAMP (11756126_x_at) / RFU RNFT2 (11725882_a_at) / Fold change /veh RNFT2 (11725882_a_at) / RFU NR4A2 (11747474_a_at) / Fold change /veh NR4A2 (11747474_a_at) / RFU ABCC12 (11746883_a_at) / Fold change /veh ABCC12 (11746883_a_at) / RFU TMEM136 (11760407_x_at) / Fold change /veh TMEM136 (11760407_x_at) / RFU CLDN22 /// WWC2 (11732394_at) / Fold change /veh CLDN22 /// WWC2 (11732394_at) / RFU HLA-DPB1 (11760878_x_at) / Fold change /veh HLA-DPB1 (11760878_x_at) / RFU SPINT1 (11716480_a_at) / Fold change /veh SPINT1 (11716480_a_at) / RFU GAP43 (11754022_s_at) / Fold change /veh GAP43 (11754022_s_at) / RFU A4GNT (11735810_at) / Fold change /veh A4GNT (11735810_at) / RFU PRB3 (11715151_x_at) / Fold change /veh PRB3 (11715151_x_at) / RFU TUBB4B (11761932_at) / Fold change /veh TUBB4B (11761932_at) / RFU CAPN14 (11732068_a_at) / Fold change /veh CAPN14 (11732068_a_at) / RFU TMCC2 (11721928_a_at) / Fold change /veh TMCC2 (11721928_a_at) / RFU IRGQ (11745062_a_at) / Fold change /veh IRGQ (11745062_a_at) / RFU FAM174B (11720279_a_at) / Fold change /veh FAM174B (11720279_a_at) / RFU TMPRSS4 (11748680_a_at) / Fold change /veh TMPRSS4 (11748680_a_at) / RFU FAM212B (11763350_a_at) / Fold change /veh FAM212B (11763350_a_at) / RFU PLEKHG5 (11743358_a_at) / Fold change /veh PLEKHG5 (11743358_a_at) / RFU ZSCAN30 (11745921_a_at) / Fold change /veh ZSCAN30 (11745921_a_at) / RFU CMKLR1 (11741424_a_at) / Fold change /veh CMKLR1 (11741424_a_at) / RFU LOC101060620 /// MAPK8IP1 (11723275_at) / Fold change /veh LOC101060620 /// MAPK8IP1 (11723275_at) / RFU SPTSSB (11747773_x_at) / Fold change /veh SPTSSB (11747773_x_at) / RFU PRSS12 (11739890_at) / Fold change /veh PRSS12 (11739890_at) / RFU BIN1 (11741810_x_at) / Fold change /veh BIN1 (11741810_x_at) / RFU WNT11 (11732464_a_at) / Fold change /veh WNT11 (11732464_a_at) / RFU C10orf10 (11716521_a_at) / Fold change /veh C10orf10 (11716521_a_at) / RFU C5orf56 (11738089_at) / Fold change /veh C5orf56 (11738089_at) / RFU CYB561 (11721691_x_at) / Fold change /veh CYB561 (11721691_x_at) / RFU ANKRD19P (11752326_a_at) / Fold change /veh ANKRD19P (11752326_a_at) / RFU OR2T12 /// OR2T33 /// OR2T8 (11738714_s_at) / Fold change /veh OR2T12 /// OR2T33 /// OR2T8 (11738714_s_at) / RFU VCAN (11748164_a_at) / Fold change /veh VCAN (11748164_a_at) / RFU JSRP1 (11732532_at) / Fold change /veh JSRP1 (11732532_at) / RFU KRTAP10-11 (11738290_x_at) / Fold change /veh KRTAP10-11 (11738290_x_at) / RFU MYO3A (11730013_a_at) / Fold change /veh MYO3A (11730013_a_at) / RFU EBF3 (11725865_a_at) / Fold change /veh EBF3 (11725865_a_at) / RFU CAMK2N1 (11719241_x_at) / Fold change /veh CAMK2N1 (11719241_x_at) / RFU C5orf56 (11738088_a_at) / Fold change /veh C5orf56 (11738088_a_at) / RFU OLFML3 (11715873_a_at) / Fold change /veh OLFML3 (11715873_a_at) / RFU LOC100653217 /// NTM (11731650_a_at) / Fold change /veh LOC100653217 /// NTM (11731650_a_at) / RFU MAPK11 (11762145_a_at) / Fold change /veh MAPK11 (11762145_a_at) / RFU FIZ1 (11724087_x_at) / Fold change /veh FIZ1 (11724087_x_at) / RFU OASL (11726364_x_at) / Fold change /veh OASL (11726364_x_at) / RFU SOX15 (11748057_x_at) / Fold change /veh SOX15 (11748057_x_at) / RFU CD79A (11719716_a_at) / Fold change /veh CD79A (11719716_a_at) / RFU HIST1H1D (11736915_at) / Fold change /veh HIST1H1D (11736915_at) / RFU CASKIN2 (11723855_a_at) / Fold change /veh CASKIN2 (11723855_a_at) / RFU LOC730098 (11760151_x_at) / Fold change /veh LOC730098 (11760151_x_at) / RFU OR4N2 (11742367_at) / Fold change /veh OR4N2 (11742367_at) / RFU PRRT2 (11749266_a_at) / Fold change /veh PRRT2 (11749266_a_at) / RFU SNX32 (11753110_a_at) / Fold change /veh SNX32 (11753110_a_at) / RFU CDHR5 (11726645_a_at) / Fold change /veh CDHR5 (11726645_a_at) / RFU RCAN1 (11760418_a_at) / Fold change /veh RCAN1 (11760418_a_at) / RFU FAM167A (11723789_a_at) / Fold change /veh FAM167A (11723789_a_at) / RFU FAM26E (11764081_at) / Fold change /veh FAM26E (11764081_at) / RFU ISYNA1 (11749810_s_at) / Fold change /veh ISYNA1 (11749810_s_at) / RFU ACY1 (11761880_at) / Fold change /veh ACY1 (11761880_at) / RFU 11764098_at / Fold change /veh 11764098_at / RFU SAMD14 (11745864_x_at) / Fold change /veh SAMD14 (11745864_x_at) / RFU NPB (11741838_a_at) / Fold change /veh NPB (11741838_a_at) / RFU TMPRSS6 (11731388_a_at) / Fold change /veh TMPRSS6 (11731388_a_at) / RFU KRTAP10-2 (11738614_at) / Fold change /veh KRTAP10-2 (11738614_at) / RFU ARHGAP8 /// PRR5-ARHGAP8 (11727945_x_at) / Fold change /veh ARHGAP8 /// PRR5-ARHGAP8 (11727945_x_at) / RFU KRTAP5-7 /// NADSYN1 (11734609_at) / Fold change /veh KRTAP5-7 /// NADSYN1 (11734609_at) / RFU RASL12 (11751679_a_at) / Fold change /veh RASL12 (11751679_a_at) / RFU CDKN2B (11736163_a_at) / Fold change /veh CDKN2B (11736163_a_at) / RFU PRF1 (11729649_at) / Fold change /veh PRF1 (11729649_at) / RFU, ZNF638 /// ZNF638-IT1 / Fold change vs veh, ZNF638 /// ZNF638-IT1 / RFU, PANK3 / Fold change vs veh, PANK3 / RFU, SH3YL1 / Fold change vs veh, SH3YL1 / RFU, ZEB2 / Fold change vs veh, ZEB2 / RFU, NRIP1 / Fold change vs veh, NRIP1 / RFU, PTTG1IP / Fold change vs veh, PTTG1IP / RFU, CAPN2 / Fold change vs veh, CAPN2 / RFU, MED14 / Fold change vs veh, MED14 / RFU, SNORA58 / Fold change vs veh, SNORA58 / RFU, C1orf63 / Fold change vs veh, C1orf63 / RFU, LRRFIP1 / Fold change vs veh, LRRFIP1 / RFU, NDUFAF7 / Fold change vs veh, NDUFAF7 / RFU, SLC12A2 / Fold change vs veh, SLC12A2 / RFU, IBTK / Fold change vs veh, IBTK / RFU, ESF1 / Fold change vs veh, ESF1 / Fold change vs veh, TMEM50B / RFU, TAOK1 / Fold change vs veh, TAOK1 / RFU, ACBD3 / Fold change vs veh, ACBD3 / RFU, TMA16 / Fold change vs veh, TMA16 / RFU, RWDD3 / Fold change vs veh, RWDD3 / RFU, BCAT1 / Fold change vs veh, BCAT1 / RFU, EDEM3 / Fold change vs veh, EDEM3 / RFU, TMEM33 / Fold change vs veh, TMEM33 / RFU, WDR75 / Fold change vs veh, WDR75 / RFU, AHCTF1 / Fold change vs veh, AHCTF1 / RFU, TFRC / Fold change vs veh, TFRC / RFU, ZDHHC17 / Fold change vs veh, ZDHHC17 / RFU, NOM1 / Fold change vs veh, NOM1 / RFU, ARL8B / Fold change vs veh, ARL8B / RFU, ZBTB11 / Fold change vs veh, ZBTB11 / RFU, TAMM41 / Fold change vs veh, TAMM41 / RFU, KIAA1704 /// LOC100996395 / Fold change vs veh, KIAA1704 /// LOC100996395 / RFU, ING1 / Fold change vs veh, ING1 / RFU, TRMT61B / Fold change vs veh, TRMT61B / RFU, FUBP3 / Fold change vs veh, FUBP3 / RFU, TP53 / Fold change vs veh, TP53 / RFU, TNKS2 / Fold change vs veh, TNKS2 / RFU, ZFP14 / Fold change vs veh, ZFP14 / RFU, ACTR2 / Fold change vs veh, ACTR2 / RFU, PPP3R1 / Fold change vs veh, PPP3R1 / RFU, PIK3R1 / Fold change vs veh, PIK3R1 / RFU, HNRNPA1 / Fold change vs veh, HNRNPA1 / RFU, RNF170 / Fold change vs veh, RNF170 / RFU, ZNF28 / Fold change vs veh, ZNF28 / RFU, RNGTT / Fold change vs veh, RNGTT / RFU, OGT / Fold change vs veh, OGT / RFU, BRD1 / Fold change vs veh, BRD1 / RFU, MARS / Fold change vs veh, MARS / RFU, ZNF655 / Fold change vs veh, ZNF655 / RFU, FAHD1 / Fold change vs veh, FAHD1 / RFU, BDP1 / Fold change vs veh, BDP1 / RFU, LRRCC1 / Fold change vs veh, LRRCC1 / RFU, ARID1A / Fold change vs veh, ARID1A / RFU, ZNF146 / Fold change vs veh, ZNF146 / RFU, ZNF330 / Fold change vs veh, ZNF330 / RFU, GPN3 / Fold change vs veh, GPN3 / RFU, C9orf123 / Fold change vs veh, C9orf123 / RFU, N4BP2L2 / Fold change vs veh, N4BP2L2 / RFU, ARFIP1 / Fold change vs veh, ARFIP1 / RFU, FAM179B / Fold change vs veh, FAM179B / RFU, BCL10 / Fold change vs veh, BCL10 / RFU, UHRF1BP1L / Fold change vs veh, UHRF1BP1L / RFU, BET1 / Fold change vs veh, BET1 / RFU, CNOT2 / Fold change vs veh, CNOT2 / RFU, ZNF268 / Fold change vs veh, ZNF268 / Fold change vs veh, ZNF507 / RFU, DGCR2 / Fold change vs veh, DGCR2 / RFU, WDSUB1 / Fold change vs veh, WDSUB1 / Fold change vs veh, HSP90B1 /// MIR3652 / RFU, ADSS / Fold change vs veh, ADSS / RFU, GK / Fold change vs veh, GK / RFU, ZNF148 / Fold change vs veh, ZNF148 / RFU, TAF9 / Fold change vs veh, TAF9 / RFU, SLC1A5 / Fold change vs veh, SLC1A5 / RFU, SLMO2 / Fold change vs veh, SLMO2 / RFU, ABCC4 / Fold change vs veh, ABCC4 / RFU, LOC101060439 /// RAP1B / Fold change vs veh, LOC101060439 /// RAP1B / RFU, RFX7 / Fold change vs veh, RFX7 / RFU, GTPBP10 / Fold change vs veh, GTPBP10 / RFU, CNEP1R1 / Fold change vs veh, CNEP1R1 / RFU, BIVM-ERCC5 /// ERCC5 / Fold change vs veh, BIVM-ERCC5 /// ERCC5 / RFU, ILF3 / Fold change vs veh, ILF3 / RFU 11762660_at / Fold change /veh 11762660_at / RFU VCAN (11757783_s_at) / Fold change /veh VCAN (11757783_s_at) / RFU DDX43 (11728927_at) / Fold change /veh DDX43 (11728927_at) / RFU KRT8 (11758188_x_at) / Fold change /veh KRT8 (11758188_x_at) / RFU NKD1 (11759106_at) / Fold change /veh NKD1 (11759106_at) / RFU SRD5A1 (11742802_a_at) / Fold change /veh SRD5A1 (11742802_a_at) / RFU TPSAB1 /// TPSB2 (11721975_s_at) / Fold change /veh TPSAB1 /// TPSB2 (11721975_s_at) / RFU GSTM3 (11746129_a_at) / Fold change /veh GSTM3 (11746129_a_at) / RFU IL23R (11737362_x_at) / Fold change /veh IL23R (11737362_x_at) / RFU TMEM51 (11727254_a_at) / Fold change /veh TMEM51 (11727254_a_at) / RFU PIWIL2 (11732686_x_at) / Fold change /veh PIWIL2 (11732686_x_at) / RFU ORM1 (11744905_x_at) / Fold change /veh ORM1 (11744905_x_at) / RFU CCDC152 (11743942_at) / Fold change /veh CCDC152 (11743942_at) / RFU ECM1 (11717891_a_at) / Fold change /veh ECM1 (11717891_a_at) / RFU IL23R (11748794_a_at) / Fold change /veh IL23R (11748794_a_at) / RFU TNFAIP8L3 (11732012_x_at) / Fold change /veh TNFAIP8L3 (11732012_x_at) / RFU MBOAT4 (11741988_at) / Fold change /veh MBOAT4 (11741988_at) / RFU 11764193_at / Fold change /veh 11764193_at / RFU TMEM53 (11763286_at) / Fold change /veh TMEM53 (11763286_at) / RFU MAGEB2 (11727129_at) / Fold change /veh MAGEB2 (11727129_at) / RFU TMEM200A (11744735_a_at) / Fold change /veh TMEM200A (11744735_a_at) / RFU CCDC152 (11751479_a_at) / Fold change /veh CCDC152 (11751479_a_at) / RFU FAM211A (11726209_a_at) / Fold change /veh FAM211A (11726209_a_at) / RFU RGS16 (11746705_a_at) / Fold change /veh RGS16 (11746705_a_at) / RFU VCAN (11755009_s_at) / Fold change /veh VCAN (11755009_s_at) / RFU RHOB (11743442_s_at) / Fold change /veh RHOB (11743442_s_at) / RFU RGS16 (11720943_a_at) / Fold change /veh RGS16 (11720943_a_at) / RFU RGS16 (11720944_at) / Fold change /veh RGS16 (11720944_at) / RFU, VPS4B / Fold change vs veh, VPS4B / RFU, CREB1 / Fold change vs veh, CREB1 / RFU, DNAJC13 / Fold change vs veh, DNAJC13 / RFU, GNAQ / Fold change vs veh, GNAQ / RFU, CDK5R1 / Fold change vs veh, CDK5R1 / RFU, ZRANB3 / Fold change vs veh, ZRANB3 / RFU, CUL4A / Fold change vs veh, CUL4A / RFU, CCNY / Fold change vs veh, CCNY / RFU, UFL1 / Fold change vs veh, UFL1 / RFU, COG3 / Fold change vs veh, COG3 / RFU, DIAPH2 / Fold change vs veh, DIAPH2 / RFU, SKA2 / Fold change vs veh, SKA2 / RFU, AFF3 / Fold change vs veh, AFF3 / RFU, LMF1 / Fold change vs veh, LMF1 / RFU, IPO11 / Fold change vs veh, IPO11 / RFU, DFFB / Fold change vs veh, DFFB / RFU, FOXP1 / Fold change vs veh, FOXP1 / RFU, CARD8 / Fold change vs veh, CARD8 / RFU, STRN3 / Fold change vs veh, STRN3 / RFU, ADK / Fold change vs veh, ADK / RFU, RASSF2 / Fold change vs veh, RASSF2 / RFU, WIPF1 / Fold change vs veh, WIPF1 / RFU, LARP1B / Fold change vs veh, LARP1B / RFU, RASA1 / Fold change vs veh, RASA1 / RFU, RB1 / Fold change vs veh, RB1 / RFU, PPFIA1 / Fold change vs veh, PPFIA1 / RFU, MAT2A / Fold change vs veh, MAT2A / RFU, CCT5 / Fold change vs veh, CCT5 / RFU, WDR92 / Fold change vs veh, WDR92 / RFU, CUX1 / Fold change vs veh, CUX1 / RFU, TTC7A / Fold change vs veh, TTC7A / RFU, TMEM135 / Fold change vs veh, TMEM135 / RFU, DEPTOR / Fold change vs veh, DEPTOR / RFU, CPM / Fold change vs veh, CPM / RFU, DNAJB6 / Fold change vs veh, DNAJB6 / RFU, CACNA2D3 / Fold change vs veh, CACNA2D3 / RFU, DTX4 / Fold change vs veh, DTX4 / RFU, TFCP2 / Fold change vs veh, TFCP2 / RFU, GMCL1 /// GMCL1P1 / Fold change vs veh, GMCL1 /// GMCL1P1 / RFU, AEBP2 / Fold change vs veh, AEBP2 / RFU, SNHG1 /// SNORD22 /// SNORD25 /// SNORD26 /// SNORD27 /// SNORD28 /// SNORD29 /// SNORD31 / Fold change vs veh, SNHG1 /// SNORD22 /// SNORD25 /// SNORD26 /// SNORD27 /// SNORD28 /// SNORD29 /// SNORD31 / Fold change (Aza/veh), C12orf56 (ProbeSet 11735607_a_at) / Fold change (ACY-1035/veh), C12orf56 (ProbeSet 11735607_a_at) / Fold change (Aza/veh), FGFR1OP (ProbeSet 11751329_s_at) / Fold change (ACY-1035/veh), FGFR1OP (ProbeSet 11751329_s_at) / Fold change (Aza/veh), VPS36 (ProbeSet 11739960_a_at) / Fold change (ACY-1035/veh), VPS36 (ProbeSet 11739960_a_at) / RFU SYPL1 (11715823_x_at) / Fold change /veh SYPL1 (11715823_x_at) / RFU IGFBP7 (11715501_s_at) / Fold change /veh IGFBP7 (11715501_s_at) / RFU REEP3 (11722064_at) / Fold change /veh REEP3 (11722064_at) / RFU IGLL1 (11728026_x_at) / Fold change /veh IGLL1 (11728026_x_at): dose or concentration left out as unconfirmed. The conditions noted are these: ProbeSet 11728271_at; LIST B.

For `Nc1ccc(-c2cccs2)cc1NC(=O)c1ccc2c(c1)cc(C1CC1)n2CCN1CCOCC1` [ACY-1035], the “Fold change vs veh, ZNF330” value is recorded as 0.88.

The values above are taken from article PMC5218480 (PLoS ONE, 2017).
